This is an account of results in US7309691B2, “Combined pharmaceutical preparation containing LHRH-analogous substances and anti estrogens for treating gynaecological disorders” (Achering Aktiengesellschaft, priority 1996, dated 2007).

The test system of series [1] is experimentally produced endometriosis (cystic endometriosis foci). Kind of series: Experimentally produced endometriosis in the rat (transplanted endometrium fragments). As to the method:
Fragments of endometrium were transplanted into different regions of the abdominal cavity of 60 animals.
Four weeks later the development of the endometriosis (cystic endometriosis foci) was examined.
The animals were then treated for 4 weeks with the LHRH antagonists Antide (0.5 mg/animal every 3 days s.c.) and Raloxifen (3 mg/animal per day p.o.) in each case alone, or in a combination of the two compounds. At the end the size of the endometriosis foci before the beginning of the treatment was compared with the values after 4 weeks' treatment.
60 animals received the LHRH antagonist Antide and Raloxifen in parallel for the first 2 weeks and Raloxifen alone for the following 2 weeks. The doses were selected as in 1.1.
60 animals received the LHRH antagonist Antide for 2 weeks. On completion of the LHRH administration Raloxifen was then administered for 2 weeks.
Analogously to Example 1, treatment with LHRH antagonists Ac-D-Nal-D-Cpa-D-Pal-Ser-Tyr-D-Cit-Leu-Lys(Mor)-D-Ala-NH2 and Droloxifen was carried out on 40 animals.

For series [2] the following is noted: women; literature; cited from earlier work.

Regarding Antide, the endogenous oestrogen levels entry in series [1] (1.1: 4 weeks' treatment, alone) is reported as “reduction in endogenous oestrogen levels corresponding to an ovariectomy”. Further, the “regression of the endometriosis foci (size before vs after treatment)” value in series [1] (1.1: 4 weeks' treatment, Antide 0.5 mg/animal every 3 days s.c., Raloxifen 3 mg/animal per day p.o., each alone or simultaneous combination) is reported as “complete regression”. The osteoclast activity entry in series [1] (rat, in vivo) is listed as “increase”.
For the compound `C#C[C@]1(O)CC[C@H]2[C@@H]3CCC4=Cc5oncc5C[C@]4(C)[C@H]3CC[C@@]21C` [danazol], the “side effects of treatment” value in series [2] is listed as “androgenisation phenomena”.
